Test results from patent US20220273679A1, “METHODS AND COMPOSITIONS FOR TREATING AND PREVENTING DAMAGE TO SKIN” (New York Society for the Relief of the Ruptured and …, priority 2019, published 2022).

Experiments:
[1] = system: Primary murine keratinocytes; test: Mouse keratinocyte-LC co-culture exposed to UVR (activated caspase-3+ keratinocytes); type: cell-based; details: keratinocytes pre-treated with 2 μM for 30 minutes before LC co-culture and UVR
Protocol: FIGS. 13A and 13B. Effect of human LCs on human keratinocytes without UVR and further characterization of in vitro LC-keratinocyte EGFR signaling (13A) Effect of human LCs on human keratinocytes without UVR. Primary human keratinocytes were co-cultured with or without human LCs and activated caspase-3+ keratinocytes were enumerated 24 hours later (n=3 human LC donors). Validation of siRNA-mediated EGFR knockdown in primary murine keratinocytes was performed. Keratinocytes were treated with control or EGFR-targeted siRNAs (#1 and #2) and EGFR expression was measured 5 days later (on the day of UVR exposure) by flow cytometry. […]
For immunofluorescence staining of cell culture experiments, polystyrene chamber slides (Lab-Tek) with cultured keratinocytes were washed with PBS, fixed with 4% paraformaldehyde for 20 minutes, permeabilized and blocked with Triton-X (0.2%) and BSA (1%), and stained as indicated. Activated caspase-3+ and total DAPI+ cells were quantified with ImageJ software by a blinded observer and the percent of activated caspase-3+ Langerin− cells (keratinocytes) and activated caspase-3+ Langerin+ cells (LCs) was calculated.
Primary mouse keratinocyte cultures were prepared from mouse tail skin as described (23). […] The co-cultures rested overnight and were then exposed to UVR and analyzed 24 hours later. […]

WT mice = test: UVR-induced keratinocyte apoptosis and skin injury in WT mice treated topically before UVR; type: in vivo, mouse; details: 4 mM topically prior to UVR, FIGS. 12B-12E
ADAM17 [2] = test: Ex vivo ADAM17 activity assay by TNFR1 cleavage, sorted murine LCs; type: cell-based, mouse; details: 25 ng/mL, 45 minutes
Protocol: FIGS. 6A-6D. UVR directly activates LC ADAM17 and EGFR ligand release. (6A, 6B) Effect of UVR on ADAM17 activity in sorted murine (6A) and human (6B) LCs as measured by change in TNFR1 mean fluorescence intensity (MFI) 45 minutes after the indicated treatments. PMA is a positive control. (n=5-6 mice; n=4 human donors). (6C,6D) Conditioned supernatants from murine (6C) or human LCs (6D) were added to A431 EGFR indicator cells and phosphoEGFR was measured 10 minutes later by flow cytometry. Murine LC supernatants were from (6A); human LC supernatants were from cells treated similarly to (6B), except that antibody was washed out prior to UVR (see Example 8). Left: Representative histogram. Right: Quantification relative to cells treated with control WT LC supernatants (6C) or control IgG-treated LC supernatants (6D). […]
To measure ADAM17 activity, we quantified the level of cell-surface tumor necrosis factor receptor 1 (TNFR1), a substrate for ADAM17 (31). […]
Sorted mouse LCs were plated in a 96-well plate at 20,000-25,000 cells/well in RPMI 1640 supplemented with L-glutamine, penicillin/streptomycin, and HEPES buffer. The cells were treated with phorbol 12-myristate 13-acetate (PMA) (Sigma-Aldrich) at 25 ng/mL or UVR (500 J/m2) and analyzed 45 minutes later. […] ADAM17 activity is expressed as the percent change in TNFR1 mean fluorescence intensity (MFI) relative to that of untreated LCs. […]

ADAM17 [3] = details: mouse embryonic fibroblasts; cited from earlier work
epithelial wound healing = details: used at 0.1 μg/ml; cited from earlier work

C=CC(=O)Nc1ccc2ncnc(Nc3cccc(Br)c3)c2c1 [PD168393]
protective effect of LCs against UVR-induced keratinocyte apoptosis [1]: abolished the protective effect of LCs | UVR-induced keratinocyte apoptosis and skin injury (WT mice): increased

CCCCCCCCCCCCCC(=O)O[C@@H]1[C@@H](C)[C@@]2(O)[C@@H](C=C(CO)C[C@]3(O)C(=O)C(C)=C[C@@H]23)[C@@H]2C(C)(C)[C@]12OC(C)=O [PMA, phorbol 12-myristate 13-acetate]
LC cell-surface TNFR1 (ADAM17 activity) (ADAM17 [2]): reduced

Lysophosphatidic acid [LPA, reference compound]
ADAM17 activation (ADAM17 [3]): activated

TGFα: EGFR ligand
epithelial wound healing (epithelial wound healing): enhance

TNFα
ADAM17 activation (ADAM17 [3]): activated

Thrombin
ADAM17 activation (ADAM17 [3]): activated
